Publication PMC13415800 (Pharmaceutics, 2026)
Entries after “also recorded” stand apart in the source; their conditions may differ.

What was measured:
Vero E6 cell line [1] = settings: compound concentration producing minimal changes in cell morphology, estimated by microscopy
Vero E6 cell line [2] = settings: for CC50: MTT
ZIKV (MR766, Uganda) = format: cell-based, Zika virus; settings: Vero E6; ZIKV MOI 1; five days; highest concentration without cytotoxicity (MCC)
ZIKV [3] = assay: Time of drug addition assay (qRT-PCR); format: cell-based, Zika virus; settings: Vero E6, MOI 1, 50 µM, 24 h pi
Protocol: Vero E6 cells were seeded on 96-well plates at 3.5 × 10^4 well and incubated (37 °C, 5% CO2) overnight. The cells were infected for 1 h with MOI of 1. Cells were treated with 50 µM of compound 7. Cells were treated at three different times: 1 h before infection, concurrently with the infection, and one hour post-infection. After the infection, the supernatant was discarded and the cells were incubated for 24 h with the media, then RNA was isolated from the supernatant and quantified using qRT-PCR (see below).
(§1) For viral RNA isolation, the Total RNA Miniprep Kit (New England Biolabs, Ipswich, USA) was used, following the manufacturer’s instruction. After RNA elution, samples were stored at −80 °C until use. For the determination of viral RNA quantity, we used the Luna® Universal Probe One-Step RT-qPCR Kit (New England Biolabs, Ipswich, MA, USA). The primers used were ZIKV_NS1_F: […], ZIKV_NS1_R: […], and the probe was FAM-5′-CCC GCA GAT-3′ /ZEN/ 5′-TGG CAG CAG-3′-BHQ1. […]
We divided the samples into five groups based on the timing of treatment: no-treatment (ZIKV), pre-treatment for 1 h (pre), co-treatment (co), post-treatment for 1 h (post), and full treatment (full) (Figure 3A). Twenty-four hours post-infection (pi), we isolated viral RNA from the supernatant and quantified it using qRT-PCR. […]

ZIKV [4] = assay: Binding assay (qRT-PCR); format: cell-based, Zika virus; settings: Vero E6; MOI 1; 50 µM; 1 h at 4 °C
Protocol: (§2) Vero E6 cells were seeded on 96 well plate 3.5 × 10^4 well and incubated (37 °C, 5% CO2) overnight. 1 h before the infection we put the cells at 4 °C. During the entry assay cells were infected for 1 h at 4 °C and MOI of 1, then washed twice with PBS. Afterward, they were treated with 50 µM of compound 7, lasting for 1 h (37 °C, 5% CO2). During the binding assay the cells were infected as before for 1 h at 4 °C and at the same time treated with 50 µM of compound 7. Following both of the treatments, the cells were washed once with PBS, then RNA was isolated from the cells. Viral RNA was quantified using qRT-PCR (see below). This assay was developed based on the methods established by Lu et al..
as §1
(§3) To gain a more precise understanding of the mechanism of action of compound 7, binding and entry assays were performed. […] After incubation, cells were washed with PBS prior to RNA extraction, and viral RNA levels were quantified by qRT-PCR.

ZIKV [5] = assay: Entry assay (qRT-PCR); format: cell-based, Zika virus; settings: Vero E6; MOI 1; infection 1 h 4 °C, then 50 µM 1 h 37 °C
Protocol: as §2, §1, §3

ZIKV [6] = assay: Virion inactivation assay (cell-free pre-incubation, plaque assay); format: cell-based, Zika virus
ZIKV [7] = assay: Virion destabilization assay (RNase A, qRT-PCR); format: biochemical, Zika virus; settings: 50 µM, 1 h, 37 °C, then RNase A
ZIKV [8] = assay: Liposome-based capsid protection assay (virus–liposome fusion); format: biochemical, Zika virus; settings: trypsin-containing liposomes; pH 5.3; 10, 50 μM
Vero E6 cells = assay: Phospholipidosis assay (LipidTOX Deep Red); format: cell-based, African green monkey (Cercopithecus aethiops); settings: 48 h
Protocol: Vero E6 cells were seeded in 96-well plates and treated with compound 7 at the indicated concentrations for 48 h. Propranolol (30 µM) was used as a positive control and DMSO as vehicle control. Phospholipid accumulation was detected using LipidTOX™ Deep Red phospholipidosis stain (Thermo Fisher Scientific, Waltham, MA, USA, H34158) according to the manufacturer’s instructions. Nuclei were counterstained with Hoechst 33342. Representative images were acquired by confocal microscopy.

[9] = test system: SARS-CoV-2 (B.1.5 (G) isolate, Hungarian); format: cell-based, severe acute respiratory syndrome coronavirus 2; settings: Vero E6, 3 days, MTT
CHIKV (Guatemala) = assay: CPE inhibition assay, CHIKV on Vero E6; format: cell-based, chikungunya virus; settings: MOI 0.1, 3 days, MTT

Compound | MCC (Vero E6 cell line [1]) [µM] | CC50 (Vero E6 cell line [2]) [µM] | cytopathic effects (microscopy) (ZIKV (MR766, Uganda)) | other results
CC(=O)N[C@H]1[C@H](O[C@@H]2c3ccc(c(Cl)c3)Oc3cc4cc(c3O)Oc3ccc(cc3Cl)C[C@H]3NC(=O)[C@H](n5cc(COCCOCCCC(F)(F)C(F)(F)C(F)(F)C(F)(F)C(F)(F)C(F)(F)C(F)(F)C(F)(F)F)nn5)c5ccc(O)c(c5)Oc5cc(O)cc(c5)[C@H](NC3=O)C(=O)N[C@H]4C(=O)N[C@H]3C(=O)N[C@@H]2C(=O)N[C@H](C(=O)O)c2cc(O)cc(O)c2-c2cc3ccc2O)O[C@H](CO)[C@@H](O)[C@@H]1O [Compound 1] | >50 | 149 | – | –
CC(=O)N[C@H]1[C@H](O[C@@H]2c3ccc(c(Cl)c3)Oc3cc4cc(c3O)Oc3ccc(cc3Cl)C[C@H]3NC(=O)[C@H](n5cc(COCCOCCCC(F)(F)C(F)(F)C(F)(F)C(F)(F)C(F)(F)C(F)(F)F)nn5)c5ccc(O)c(c5)Oc5cc(O)cc(c5)[C@H](NC3=O)C(=O)N[C@H]4C(=O)N[C@H]3C(=O)N[C@@H]2C(=O)N[C@H](C(=O)O)c2cc(O)cc(O)c2-c2cc3ccc2O)O[C@H](CO)[C@@H](O)[C@@H]1O [Compound 2] | >40 | 195 | we did not observed any CPE; also recorded: No cytopathic effects were observed | –
CC(=O)N[C@H]1[C@H](O[C@@H]2c3ccc(c(Cl)c3)Oc3cc4cc(c3O)Oc3ccc(cc3Cl)C[C@H]3NC(=O)[C@H](n5cc(COCCOCCCC(F)(F)C(F)(F)C(F)(F)C(F)(F)F)nn5)c5ccc(O)c(c5)Oc5cc(O)cc(c5)[C@H](NC3=O)C(=O)N[C@H]4C(=O)N[C@H]3C(=O)N[C@@H]2C(=O)N[C@H](C(=O)O)c2cc(O)cc(O)c2-c2cc3ccc2O)O[C@H](CO)[C@@H](O)[C@@H]1O [Compound 3] | >50 | 198 | we did not observed any CPE; also recorded: No cytopathic effects were observed | –
CC(=O)N[C@H]1[C@H](O[C@@H]2c3ccc(c(Cl)c3)Oc3cc4cc(c3O)Oc3ccc(cc3Cl)C[C@H]3NC(=O)[C@H](NC(=O)CCC(F)(F)C(F)(F)C(F)(F)C(F)(F)C(F)(F)C(F)(F)C(F)(F)C(F)(F)F)c5ccc(O)c(c5)Oc5cc(O)cc(c5)[C@H](NC3=O)C(=O)N[C@H]4C(=O)N[C@H]3C(=O)N[C@@H]2C(=O)N[C@H](C(=O)O)c2cc(O)cc(O)c2-c2cc3ccc2O)O[C@H](CO)[C@@H](O)[C@@H]1O [Compound 6] | >60 | 175 | we did not observed any CPE; also recorded: No cytopathic effects were observed | –
CC(=O)NC1C(OC2c3ccc(c(Cl)c3)Oc3cc4cc(c3O)Oc3ccc(cc3Cl)CC3NC(=O)C(NC(=O)CCC(F)(F)C(F)(F)C(F)(F)C(F)(F)C(F)(F)C(F)(F)F)c5ccc(O)c(c5)Oc5cc(O)cc(c5)C(NC3=O)C(=O)NC4C(=O)NC3C(=O)NC2C(=O)NC(C(=O)O)c2cc(O)cc(O)c2-c2cc3ccc2O)OC(CO)C(O)C1O (stereo not drawn) [Compound 7] | >60 | 203 | No cytopathic effects were observed | viral RNA level vs no-treatment, pre-treatment (before infection) (ZIKV [3]; 1 h before infection): No significant inhibition; viral RNA level vs no-treatment, post-treatment (after viral entry) (ZIKV [3]; 1 h post-infection): No significant inhibition; viral RNA level, binding assay, treated vs control (ZIKV [4]): No significant differences; viral RNA level, entry assay, treated vs control (ZIKV [5]): No significant differences; reduction of viral titer vs untreated control (ZIKV [6]): approximately one order of magnitude; viral RNA copy number vs negative control (virion integrity) (ZIKV [7]): No significant reduction; capsid protein signal under low-pH fusion conditions (Western blot) (ZIKV [8]): preserved the capsid signal; concentration from which phospholipidosis is detectable (Vero E6 cells): ≥ 2500 nM; phospholipidosis response (Vero E6 cells; positive control propranolol 30 µM): weak phospholipidosis response
COC(=O)C1NC(=O)C2NC(=O)C(NC(=O)C3NC(=O)C4NC(=O)C(NC(=O)C(NC(=O)CCC(F)(F)C(F)(F)C(F)(F)C(F)(F)C(F)(F)C(F)(F)C(F)(F)C(F)(F)F)c5ccc(O)c(c5)Oc5cc4cc(O)c5C)C(O)c4ccc(cc4)Oc4cc3cc(c4O)Oc3ccc(cc3)C2O)c2ccc(O)c(c2)-c2c(O)cc(O)cc21 (stereo not drawn) [Compound 8] | >20 | 62.6 | – | cytotoxic effects (in words) (Vero E6 cell line [2]): slightly cytotoxic
Teicoplanin [reference compound] | >60 | 280 | – | EC50 [9]: 33.9 µM; EC50 (CHIKV (Guatemala)): 86.2 µM
